Key:
CSNK2A2 = biological target: T1, CSNK2A2 (Homo sapiens, UniProt P19784); experiment: kinome scan; format: binding; details: 10 µM
T1 construct: purchased DiscoverX (KINOMEscan)

STK36 = biological target: T2, STK36 (Homo sapiens, UniProt Q9NRP7); experiment: kinome scan; format: binding; details: 10 µM
T2 construct: purchased DiscoverX (KINOMEscan)

MAP3K4 = biological target: T3, MAP3K4 (Homo sapiens, UniProt Q9Y6R4); experiment: kinome scan; format: binding; details: 10 µM
T3 construct: purchased DiscoverX (KINOMEscan)

PRKCI = biological target: T4, PRKCI (Homo sapiens, UniProt P41743); experiment: kinome scan; format: binding; details: 10 µM
T4 construct: purchased DiscoverX (KINOMEscan)

DCAMKL1 = biological target: T5, DCAMKL1 (Homo sapiens, UniProt O15075); experiment: kinome scan; format: binding; details: 10 µM
T5 construct: purchased DiscoverX (KINOMEscan)

[1] = biological target: T6, TYK2(JH2domain-pseudokinase) (Homo sapiens, UniProt P29597); experiment: kinome scan; format: binding
T6 construct: TYK2(JH2domain-pseudokinase); purchased DiscoverX (KINOMEscan)

GRK1 = biological target: T7, GRK1 (Homo sapiens, UniProt Q15835); experiment: kinome scan; format: binding; details: 10 µM
T7 construct: purchased DiscoverX (KINOMEscan)

MERTK = biological target: T8, MERTK (Homo sapiens, UniProt Q12866); experiment: kinome scan; format: binding; details: 10 µM
T8 construct: purchased DiscoverX (KINOMEscan)

NEK2 = biological target: T9, NEK2 (Homo sapiens, UniProt P51955); experiment: kinome scan; format: binding; details: 10 µM
T9 construct: purchased DiscoverX (KINOMEscan)

PRKCQ = biological target: T10, PRKCQ (Homo sapiens, UniProt Q04759); experiment: kinome scan; format: binding; details: 10 µM
T10 construct: purchased DiscoverX (KINOMEscan)

ITK = biological target: T11, ITK (Homo sapiens, UniProt Q08881); experiment: kinome scan; format: binding; details: 10 µM
T11 construct: purchased DiscoverX (KINOMEscan)

RET = biological target: T12, RET (Homo sapiens, UniProt P07949); experiment: kinome scan; format: binding; details: 10 µM
T12 construct: purchased DiscoverX (KINOMEscan)

PIM2 = biological target: T13, PIM2 (Homo sapiens, UniProt Q9P1W9); experiment: kinome scan; format: binding; details: 10 µM
T13 construct: purchased DiscoverX (KINOMEscan)

MAST1 = biological target: T14, MAST1 (Homo sapiens, UniProt Q9Y2H9); experiment: kinome scan; format: binding; details: 10 µM
T14 construct: purchased DiscoverX (KINOMEscan)

FLT3(D835Y) = biological target: T15, FLT3(D835Y) (Homo sapiens, UniProt P36888, D835Y); experiment: kinome scan; format: binding; details: 10 µM
T15 construct: purchased DiscoverX (KINOMEscan)

LCK = biological target: T16, LCK (Homo sapiens, UniProt P06239); experiment: kinome scan; format: binding; details: 10 µM
T16 construct: purchased DiscoverX (KINOMEscan)

[2] = test system: Mitochondrial membrane potential; set-up: method as in CHEMBL1614240; details: reported activity, data mining; ref CHEMBL1614240; cited from earlier work
PIK3CD = biological target: T17, PIK3CD (Homo sapiens, UniProt O00329); experiment: kinome scan; format: binding; details: 10 µM
T17 construct: purchased DiscoverX (KINOMEscan)

TAK1 = biological target: T18, TAK1 (Homo sapiens, UniProt O43318); experiment: kinome scan; format: binding; details: 10 µM
T18 construct: purchased DiscoverX (KINOMEscan)

CDK8 = biological target: T19, CDK8 (Homo sapiens, UniProt P49336); experiment: kinome scan; format: binding; details: 10 µM
T19 construct: purchased DiscoverX (KINOMEscan)

CDK5 = biological target: T20, CDK5 (Homo sapiens, UniProt Q00535); experiment: kinome scan; format: binding; details: 10 µM
T20 construct: purchased DiscoverX (KINOMEscan)

EGFR(S752-I759del) = biological target: T21, EGFR(S752-I759del) (Homo sapiens, UniProt P00533, DEL752-759); experiment: kinome scan; format: binding; details: 10 µM
T21 construct: purchased DiscoverX (KINOMEscan)

ICK = biological target: T22, ICK (Homo sapiens, UniProt Q9UPZ9); experiment: kinome scan; format: binding; details: 10 µM
T22 construct: purchased DiscoverX (KINOMEscan)

EGFR(L747-S752delP753S) = biological target: T23, EGFR(L747-S752delP753S) (Homo sapiens, UniProt P00533, DEL747-752/P753S); experiment: kinome scan; format: binding; details: 10 µM
T23 construct: purchased DiscoverX (KINOMEscan)
T23 sequence (P00533 with tags, fused parts or gaps DEL747-752/P753S limits assumed): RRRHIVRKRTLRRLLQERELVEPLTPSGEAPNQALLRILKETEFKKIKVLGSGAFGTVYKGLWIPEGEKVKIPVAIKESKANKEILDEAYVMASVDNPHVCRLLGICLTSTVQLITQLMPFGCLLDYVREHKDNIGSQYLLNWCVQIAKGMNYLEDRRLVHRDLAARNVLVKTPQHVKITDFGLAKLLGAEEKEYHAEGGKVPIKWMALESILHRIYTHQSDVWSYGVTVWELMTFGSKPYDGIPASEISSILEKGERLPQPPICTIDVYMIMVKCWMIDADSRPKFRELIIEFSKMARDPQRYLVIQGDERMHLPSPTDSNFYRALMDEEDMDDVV

T6 sequence (P29597 556-888 limits assumed): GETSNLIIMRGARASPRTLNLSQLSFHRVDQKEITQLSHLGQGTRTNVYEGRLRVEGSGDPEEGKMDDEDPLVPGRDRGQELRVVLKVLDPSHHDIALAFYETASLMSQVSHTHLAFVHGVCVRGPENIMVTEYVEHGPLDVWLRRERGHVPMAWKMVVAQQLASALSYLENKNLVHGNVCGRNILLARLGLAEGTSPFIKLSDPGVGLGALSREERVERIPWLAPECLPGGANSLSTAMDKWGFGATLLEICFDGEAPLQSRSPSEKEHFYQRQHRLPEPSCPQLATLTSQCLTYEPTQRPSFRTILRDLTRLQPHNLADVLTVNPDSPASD
T5 sequence (O15075 whole entry): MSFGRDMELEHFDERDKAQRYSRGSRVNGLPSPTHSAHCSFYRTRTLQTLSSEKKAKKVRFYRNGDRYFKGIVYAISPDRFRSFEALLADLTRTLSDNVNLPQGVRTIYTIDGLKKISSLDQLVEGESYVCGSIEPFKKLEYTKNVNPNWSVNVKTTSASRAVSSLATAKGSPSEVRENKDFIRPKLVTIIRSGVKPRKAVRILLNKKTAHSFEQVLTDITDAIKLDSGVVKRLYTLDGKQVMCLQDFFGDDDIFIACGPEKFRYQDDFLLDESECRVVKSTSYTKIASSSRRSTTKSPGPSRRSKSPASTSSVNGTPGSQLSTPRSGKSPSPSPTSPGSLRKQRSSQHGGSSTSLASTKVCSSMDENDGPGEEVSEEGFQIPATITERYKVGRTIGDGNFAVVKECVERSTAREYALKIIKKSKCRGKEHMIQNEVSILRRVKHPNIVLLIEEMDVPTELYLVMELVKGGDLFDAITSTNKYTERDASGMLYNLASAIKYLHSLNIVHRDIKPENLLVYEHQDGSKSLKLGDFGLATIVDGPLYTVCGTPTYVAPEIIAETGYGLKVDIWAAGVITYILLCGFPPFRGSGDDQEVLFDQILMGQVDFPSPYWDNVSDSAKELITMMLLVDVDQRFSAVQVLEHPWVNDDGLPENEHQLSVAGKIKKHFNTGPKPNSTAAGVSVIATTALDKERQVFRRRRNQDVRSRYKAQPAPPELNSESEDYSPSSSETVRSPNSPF
T22 sequence (Q9UPZ9 whole entry): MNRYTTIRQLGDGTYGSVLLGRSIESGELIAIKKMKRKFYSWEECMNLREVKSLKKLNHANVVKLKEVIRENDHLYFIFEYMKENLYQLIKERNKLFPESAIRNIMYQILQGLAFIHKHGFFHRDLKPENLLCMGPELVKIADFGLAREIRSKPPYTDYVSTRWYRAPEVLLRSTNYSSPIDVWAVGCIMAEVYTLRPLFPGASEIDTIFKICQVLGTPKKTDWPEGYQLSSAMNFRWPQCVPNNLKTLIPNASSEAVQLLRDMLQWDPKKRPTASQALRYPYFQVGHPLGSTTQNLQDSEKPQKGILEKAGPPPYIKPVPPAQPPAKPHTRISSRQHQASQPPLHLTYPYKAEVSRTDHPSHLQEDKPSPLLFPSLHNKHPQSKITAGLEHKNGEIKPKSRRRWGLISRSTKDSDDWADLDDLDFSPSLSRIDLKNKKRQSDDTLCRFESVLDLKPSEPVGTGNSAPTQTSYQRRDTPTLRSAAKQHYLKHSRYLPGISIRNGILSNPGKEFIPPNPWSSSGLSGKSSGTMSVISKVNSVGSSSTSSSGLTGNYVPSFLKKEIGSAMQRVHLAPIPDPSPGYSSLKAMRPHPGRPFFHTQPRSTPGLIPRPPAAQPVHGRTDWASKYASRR
T7 sequence (Q15835 whole entry): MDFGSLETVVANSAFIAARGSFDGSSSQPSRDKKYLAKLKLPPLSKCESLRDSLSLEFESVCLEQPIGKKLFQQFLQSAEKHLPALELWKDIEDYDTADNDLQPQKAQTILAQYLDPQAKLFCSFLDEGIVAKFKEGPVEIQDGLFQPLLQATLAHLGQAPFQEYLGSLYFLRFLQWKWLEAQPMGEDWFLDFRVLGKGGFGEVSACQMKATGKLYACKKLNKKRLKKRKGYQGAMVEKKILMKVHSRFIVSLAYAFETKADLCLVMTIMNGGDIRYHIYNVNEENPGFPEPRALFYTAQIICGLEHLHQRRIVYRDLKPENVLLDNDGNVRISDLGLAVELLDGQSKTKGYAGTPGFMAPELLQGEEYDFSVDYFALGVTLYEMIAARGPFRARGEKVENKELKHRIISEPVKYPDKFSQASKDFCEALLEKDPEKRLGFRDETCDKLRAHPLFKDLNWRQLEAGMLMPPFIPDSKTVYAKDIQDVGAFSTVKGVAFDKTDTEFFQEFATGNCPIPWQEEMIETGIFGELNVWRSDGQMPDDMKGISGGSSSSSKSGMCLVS
T2 sequence (Q9NRP7 whole entry): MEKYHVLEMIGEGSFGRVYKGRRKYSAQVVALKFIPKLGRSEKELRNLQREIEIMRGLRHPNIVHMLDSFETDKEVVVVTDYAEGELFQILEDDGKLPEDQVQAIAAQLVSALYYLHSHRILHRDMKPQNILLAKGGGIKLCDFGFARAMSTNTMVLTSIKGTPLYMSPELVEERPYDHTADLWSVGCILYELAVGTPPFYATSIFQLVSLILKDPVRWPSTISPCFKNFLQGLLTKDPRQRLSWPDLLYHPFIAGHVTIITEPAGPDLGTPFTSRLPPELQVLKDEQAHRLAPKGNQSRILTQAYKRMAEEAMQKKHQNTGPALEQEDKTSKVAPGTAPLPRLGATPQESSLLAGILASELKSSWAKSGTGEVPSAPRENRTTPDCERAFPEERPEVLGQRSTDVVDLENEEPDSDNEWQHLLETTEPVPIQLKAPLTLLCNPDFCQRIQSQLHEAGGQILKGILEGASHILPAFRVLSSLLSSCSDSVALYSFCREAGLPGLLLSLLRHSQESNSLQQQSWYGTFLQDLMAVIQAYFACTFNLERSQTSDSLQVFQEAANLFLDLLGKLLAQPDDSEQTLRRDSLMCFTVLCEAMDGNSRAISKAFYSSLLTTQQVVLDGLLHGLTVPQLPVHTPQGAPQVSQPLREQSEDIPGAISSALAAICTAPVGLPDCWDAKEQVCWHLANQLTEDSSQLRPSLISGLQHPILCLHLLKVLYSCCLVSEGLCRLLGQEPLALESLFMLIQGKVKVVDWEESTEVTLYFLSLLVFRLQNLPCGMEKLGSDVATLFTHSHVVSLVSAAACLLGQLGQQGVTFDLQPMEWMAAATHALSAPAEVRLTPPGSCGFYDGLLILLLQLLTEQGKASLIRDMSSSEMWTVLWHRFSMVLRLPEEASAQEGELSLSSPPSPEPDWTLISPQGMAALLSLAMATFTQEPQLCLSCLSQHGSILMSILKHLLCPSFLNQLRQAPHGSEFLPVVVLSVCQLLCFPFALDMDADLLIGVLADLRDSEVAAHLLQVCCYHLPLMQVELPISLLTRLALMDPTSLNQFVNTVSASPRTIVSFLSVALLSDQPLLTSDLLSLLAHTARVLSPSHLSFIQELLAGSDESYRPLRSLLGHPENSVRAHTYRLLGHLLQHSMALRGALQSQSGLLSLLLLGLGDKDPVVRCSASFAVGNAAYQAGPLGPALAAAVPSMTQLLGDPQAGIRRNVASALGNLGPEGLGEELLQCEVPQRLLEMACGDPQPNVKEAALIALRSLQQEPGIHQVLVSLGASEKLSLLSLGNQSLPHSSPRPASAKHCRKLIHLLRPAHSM
T17 sequence (O00329 whole entry): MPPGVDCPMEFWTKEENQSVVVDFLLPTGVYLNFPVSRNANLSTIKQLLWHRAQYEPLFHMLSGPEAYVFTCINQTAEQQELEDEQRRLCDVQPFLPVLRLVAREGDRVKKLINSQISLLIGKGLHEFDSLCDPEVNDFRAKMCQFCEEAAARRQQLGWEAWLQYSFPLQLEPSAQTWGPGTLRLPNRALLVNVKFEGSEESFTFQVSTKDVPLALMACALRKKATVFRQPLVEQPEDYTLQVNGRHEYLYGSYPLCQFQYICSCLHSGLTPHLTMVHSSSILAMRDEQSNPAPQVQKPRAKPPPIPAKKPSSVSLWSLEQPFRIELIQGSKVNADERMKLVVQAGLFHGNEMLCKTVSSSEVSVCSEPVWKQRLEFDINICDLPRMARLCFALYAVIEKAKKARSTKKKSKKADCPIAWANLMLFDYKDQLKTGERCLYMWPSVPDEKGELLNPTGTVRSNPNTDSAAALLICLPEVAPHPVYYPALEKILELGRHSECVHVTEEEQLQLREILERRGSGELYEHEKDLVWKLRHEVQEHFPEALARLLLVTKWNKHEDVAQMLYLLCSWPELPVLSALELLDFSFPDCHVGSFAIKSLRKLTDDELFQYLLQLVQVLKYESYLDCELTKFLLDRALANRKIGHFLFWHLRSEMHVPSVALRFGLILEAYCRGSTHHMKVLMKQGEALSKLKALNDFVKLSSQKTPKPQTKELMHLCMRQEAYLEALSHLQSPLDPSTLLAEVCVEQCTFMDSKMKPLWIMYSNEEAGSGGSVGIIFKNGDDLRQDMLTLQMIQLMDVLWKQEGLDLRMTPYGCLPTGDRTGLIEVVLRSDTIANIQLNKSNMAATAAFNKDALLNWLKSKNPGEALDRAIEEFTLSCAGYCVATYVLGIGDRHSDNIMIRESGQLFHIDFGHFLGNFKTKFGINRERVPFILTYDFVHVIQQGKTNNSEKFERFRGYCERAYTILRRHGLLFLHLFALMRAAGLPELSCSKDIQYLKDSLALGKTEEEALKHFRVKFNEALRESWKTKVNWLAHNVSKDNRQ

Which results are given for `Nc1ccc(N=Nc2ccccc2)c(N)n1` [phenazopyridine, 2,6-diamino-3-(phenylazo)pyridine]?
kinase inhibition (CSNK2A2): 63; kinase inhibition (STK36): 99; kinase inhibition (MAP3K4): 100; kinase inhibition (PRKCI): 100; kinase inhibition (DCAMKL1): 100; remaining binding (% of control) ([1]; TYK2(JH2domain-pseudokinase), 10 µM): 16; remaining binding at 10 µM ([1]; TYK2 as printed (Table S4: JH2domain-pseudokinase), read-out: % Of control): 16%; remaining binding (% of control) (GRK1): 100; kinase inhibition (MERTK): 100; kinase inhibition (NEK2): 81; kinase inhibition (PRKCQ): 81; kinase inhibition (ITK): 97; kinase inhibition (RET): 100; kinase inhibition (PIM2): 100; kinase inhibition (MAST1): 85; percent of control (remaining binding) (FLT3(D835Y)): 42; kinase inhibition (LCK): 96; Concentration [2]: 16.7 µM; kinase inhibition (PIK3CD): 78; kinase inhibition (TAK1): 80; kinase inhibition (CDK8): 86; kinase inhibition (CDK5): 90; kinase inhibition (EGFR(S752-I759del)): 97; kinase inhibition (ICK): 90; kinase inhibition (EGFR(L747-S752delP753S)): 73
